# Reference: patent US12599597B2, “Substituted N-benzhydrylacetamide inhibitors of jumanji domain histone demethylases for the treatment of cancer” (University of Kentucky Research Foundation, priority 2020, dated 2026)
# Assays:
# Type in all cases: cell-based
# [1] = tested on: Wnt target genes in LS174T colon cancer cells; assay: Western blotting of Wnt target genes in colon cancer cells
# Description: The activities of 58B1 were validated by western blotting.
# (§1) Identification of a CBA-1 as a novel Wnt inhibitor. The present inventors routinely use TOPFlash reporter assay for Wnt inhibitor screening. To mimic the constitutively active Wnt signaling found in CRC cells, Wnt signaling was activated by inhibiting GSK3 and stabilizing β-catenin. From screening in house small-molecule libraries, CBA-1 (FIG. 4) was identified that inhibited Wnt signaling in TOPFlash reporter assay. To validate the screening results, CBA-1 was tested in CRC cells.
# [2] = tested on: histone methylation in CRC cells; assay: Histone methylation in CRC cells
# Description: CBA-1 increased repressive histone methylation on Wnt target genes. The present inventors reported that mutations in APC or β-catenin N-terminal phosphorylation sites prevented β-catenin degradation in CRC cells. […] Because CBA-1 inhibited Wnt signaling in CRC cells, it was reasonable to assume that it inhibited Wnt signaling downstream of β-catenin, most likely by blocking β-catenin activity in the nucleus. Consequently, the present inventors hypothesized that CBA-1 inhibited Wnt signaling epigenetically by altering chromatin remodeling, and they probed the effects of CBA-1 on histone methylation in CRC cells.
# [3] = tested on: CRC organoids from Apc^f/+/Kras^LSL-G12D/Villin-Cre mice; assay: Mouse CRC organoids formation; conditions: 3 μM; p<0.01
# Experimental: FIGS. 11A-B show an image and a graph illustrating mouse CRC organoids. (A) CRC organoids from Apc^f/+/Kras^LsL-G12D/Villin-Cre mice. (B) CBA-1 (3 μM) inhibited CRC organoids (*p<0.01; n=3).
# CRC organoids models. To analyze the effects of CBA-1 in CRC, a colon cancer organoid model was established from Apc^f/+/Kras^LSL-G12D/Villin-Cre mice (FIG. 11A).
# Wnt signaling = assay: TOPFlash (Wnt) reporter assay in stable HEK293T cell line
# Description: Wnt signaling is a key target for multiple human cancers, including but not limited to colon cancer, liver cancer, and lung cancer. To identify novel Wnt regulators by high throughput screening, a stable HEK293T cell line containing the TOPFlash reporter was established. Since β-catenin is often activated by mutations in the Wnt pathway, it is important to inhibit Wnt signaling downstream of β-catenin activity. Therefore, the screen was specifically designed to identify Wnt inhibitors that target events downstream of β-catenin. The Wnt signaling was activated by treating cells with lithium chloride to inhibit GSK3 and to stabilize β-catenin, mimicking the constitutively active Wnt signaling in cancer cells. Through this screen, a family of novel Wnt inhibitors that inhibited Wnt signaling at a 0.5-10 μM concentrations (Table 1) was identified.
# After 6 h, the cells were treated with 25 mM LiCl to activate Wnt signaling. The inhibition ratio of each compound was determined (Table 1).
# For the SAR studies, 58B1 (VMS-7-133) was re-synthesized. Additionally, SD70, a commercial KDM4 inhibitor, was both purchased and re-synthesized (VMS-7-175). […] VMS-7-195 is a biotinylated analog of 58B1. […] Specific KDM inhibitors may be used to target specific KDMs, such as KDM3A, which is highly expressed in many human cancers.
# as §1
smiles,measurement,setting,value
CCCC(=O)NC(c1ccc(N(CC)CC)cc1)c1cc(Cl)c2cccnc2c1O (stereo not drawn) [58B1],expression of Wnt target genes,"[1]; 5 μM, LS174T, western blotting",strongly inhibited
same,expression of Wnt target genes,"[1]; CRC cells (LS174T), concentration not given",repressed
same,H3K4Me^2,[2],no effect
same,levels of H3K9Me^2,[2],significantly increased
same,levels of H3K9Me^3,[2],significantly increased
same,mouse CRC organoids formation,[3],significantly inhibited
same,inhibition,"Wnt signaling; Homo sapiens, HEK-293T, Table 1, HEK293T TOPFlash, 25 mM LiCl after 6 h",95%
same,inhibition at 1 µM,"Wnt signaling; Homo sapiens, HEK-293T, Table 3, Wnt reporter assay at 1 μM, read-out: Percent inhibition at 1 μM",90.9%
same,Wnt signaling in TOPFlash reporter assay,Wnt signaling; screening of in house libraries,inhibited
